Legend:
[1] = test system: DP 7220 RR; assay: Effect of glyphosate on soybean yield, male sterility assessed from yield (Example 4); assay type: in vivo
From the text: (§1) The glyphosate-tolerant soybean varieties DP 7220 RR, DP 6299 RR and DP 5414 RR were planted in replicated four row plots 18 feet in length, at planting and during growing season, end trimmed to 14.5 feet just prior to harvest to remove end effects in yield. Glyphosate (RoundUp® Ultra Max, Monsanto Co.) was applied starting 14 days post planting, with 5 applications at approximately 10 day intervals thereafter. The sprays consisted of a single 2% solution of the RoundUp® Ultra Max commercial glyphosate product, which is a 50% solution of glyphosate. This is equivalent to 16.25 ml/l or 2.17 oz/gal. This solution was used for all treatments, and was applied to runoff. Four rates of application were used: 0 ounces/acre (oz/acre) (control), 13.5 oz/acre (equivalent to the 16 oz/acre of the 41% formulation used in Examples 1-3), 26 oz/acre (equivalent to the 32 oz/acre used for Examples 1-3) and 52 oz/acre (equivalent to the 64 oz/acre used for Examples 1-3).
(§2) The two middle rows of each plot were harvested for yield, calculated in bushels/acre (bu/acre) based on this land area. Statistical significance was determined using a standard single-tailed T-test. Male sterility was assessed based on the yield, because soybean is a […] flower (the flowers never open until after fertilization), and thus is almost completely self-pollinated. A statistically significant reduction in the yield would therefore correlate with a decreased rate of fertilization. Pollen production was not assessed in this experiment, but based on the observations made in cotton (Examples 1-3), it is reasonable to conclude that the decrease in fertilization rate in soybeans was due to a decrease in viable pollen production.

[2] = test system: DP 5414 RR; assay: as above; assay type: in vivo
From the text: as §1, §2

[3] = test system: DP 6299 RR; assay: as above; assay type: in vivo
From the text: as §1, §2

[4] = test system: PM 2200 RR and PM 2326 RR; assay: Spray rate test, fertility scores and seed set after hand pollination (Example 3); assay type: in vivo, cotton
Description: A further test was conducted using the varieties PM 2200 RR and PM 2326 RR, in which 4 levels of glyphosate spray rates were applied at 14 day intervals, beginning at 31 days post planting. The rates used were: 0, 16, 24 and 32 ounces/acre of glyphosate. Fertility scores were taken at roughly 2 day intervals during the season to follow male sterility development. At the same time hand pollination was done on 10 flowers in each treatment (all 3 replicates), also at 2 day intervals for a total of “10 crossing days”. This was to determine the amount of seed set under the various spray regimes and thus infer the degree of female sterility, if any, being induced by the glyphosate applications.

[5] = test system: glyphosate-tolerant variety (RR1445) of Coker 312; assay: Glyphosate-induced male sterility in cotton, field plots scored for fertility (Example 1); assay type: in vivo
From the text: A test was designed to determine whether glyphosate-induced male sterility in cotton could be reliably maintained throughout the blooming period.
The plant material used was a glyphosate-tolerant variety (RR1445) of Coker 312 obtained from Monsanto Co. (St. Louis, Mo.). Seed was planted in 25 foot long, single row plots, with a 38 inch row spacing. The test was replicated four times with treatments applied as follows:
Treatment 1: Single spray at 30 days post planting (“30 DPP”);
Treatment 2: Multiple sprays beginning at 30 DPP and repeating every 10 days (“30 DPP+10 D”)
Treatment 3: Multiple sprays beginning at 30 DPP and repeating every 20 days (“30 DPP+20 D”)
Treatment 4: Unsprayed control.
The sprays consisted of a single 2% solution of Roundup® brand glyphosate (41% formulation), which was equivalent to 20 ml/l, or 22/3 oz/gal. This solution was used in all spray treatments, and was applied to runoff. […] At the onset of bloom (mid-July) and through mid September, each plot was scored for fertility approximately every 5 days as follows:
0=Complete sterility; no pollen present upon rubbing anthers between fingers;
1=Practically no pollen present upon rubbing anthers, no self pollination possible because anthers never shed pollen, male-sterile for all practical purposes;
2=Very little pollen upon rubbing anthers, no natural pollen shed, no self pollination possible, male sterile for all practical purposes;
3=Some pollen present when anthers rubbed, a minimal amount of natural pollen shed on lower anthers, a very small amount of self pollination possible with insect activity;
4=Anthers shed pollen in sufficient amounts at all anther levels to self pollinate;
5=Anthers shed pollen in normal amounts from all anthers.

[6] = test system: Paymaster 145 RR; assay: Crossing block with hand pollination, boll and seed set (Example 2); assay type: in vivo, cotton; settings: glyphosate applied as in Example 1 (about 64 oz/acre); end of season
From the text: A small isolated crossing block was planted with variety Paymaster 145 RR. Glyphosate was applied as indicated in the previous Example. The intention was to maintain male sterility and to cross pollinate (manually) with pollen from another Paymaster variety to produce actual F1 hybrid seed.

For `O=C(O)CNCP(=O)(O)O` [glyphosate], the “Male sterility (assessed from yield)” value ([1]; 13.5 to 52 oz/acre) was “complete male-sterility was not achieved”, the “Average Difference from Control” value ([1]; application rate 13.5 oz./acre) was 4.05 oz./acre and the Yield ([1]; application rate 13.5 oz./acre) was 35.95 bu/acre. For the same molecule, the “Average Difference from Control” value ([1]; application rate 26 oz./acre) was 8.27 oz./acre, the Yield ([1]; application rate 26 oz./acre) was 31.73 bu/acre and the “Average Difference from Control” value ([1]; application rate 52 oz./acre) was 11.55 oz./acre. The Yield ([1]; application rate 52 oz./acre) was 28.45 bu/acre, the “Male sterility (assessed from yield)” value ([2]; 13.5 to 52 oz/acre) was “complete male-sterility was not achieved” and the “Average Difference from Control” value ([2]; application rate 13.5 oz./acre) was 2.05 oz./acre. For the same molecule, the Yield ([2]; application rate 13.5 oz./acre) was 32.53 bu/acre, the “Average Difference from Control” value ([2]; application rate 26 oz./acre) was 8.30 oz./acre and the Yield ([2]; application rate 26 oz./acre) was 26.28 bu/acre. For the same molecule, the “Average Difference from Control” value ([2]; application rate 52 oz./acre) was 8.65 oz./acre, the Yield ([2]; application rate 52 oz./acre) was 25.93 bu/acre and the “Male sterility (assessed from yield)” value ([3]; 13.5 to 52 oz/acre) was “complete male-sterility was not achieved”. The “Average Difference from Control” value ([3]; application rate 13.5 oz./acre) was 1.23 oz./acre, the Yield ([3]; application rate 13.5 oz./acre) was 36.45 bu/acre and the “Average Difference from Control” value ([3]; application rate 26 oz./acre) was 9.65 oz./acre. For the same molecule, the Yield ([3]; application rate 26 oz./acre) was 28.03 bu/acre, the “Average Difference from Control” value ([3]; application rate 52 oz./acre) was 10.18 oz./acre and the Yield ([3]; application rate 52 oz./acre) was 27.50 bu/acre. The Female sterility ([4]; 24 oz/acre rate at roughly 10 day intervals (best effect)) was “minimal or no female sterility”, the Male sterility ([4]; all rates used: 16, 24 and 32 ounces/acre, 14 day intervals from 31 days post planting) was “produced male sterility” and the “Boll and hybrid seed set after hand pollination” value ([4]; all the spray rates tested (16, 24, 32 oz/acre)) was “Full, mature bolls bearing hybrid seed were produced”. The “Level of male sterility induced” value ([4]; both varieties PM 2200 RR and PM 2326 RR, small varietal difference) was “adequate for hybrid production”, the Fertility score ([5]; 30 DPP (single spray at 30 days post planting), 2% Roundup about 64 oz/acre, 58 days post planting, score 0 complete sterility to 5 normal pollen, practical sterility 2.75 or below) was 1.00 and the Fertility score ([5]; 30 DPP + 10 D (sprays from 30 DPP every 10 days), 2% Roundup about 64 oz/acre, 58 days post planting) was 1.00. The Fertility score ([5]; 30 DPP + 10 D, 62 days post planting) was 1.00, the Fertility score ([5]; 30 DPP + 10 D, 66 days post planting) was 1.00 and the Fertility score ([5]; 30 DPP + 10 D, 70 days post planting) was 1.00. The Fertility score ([5]; 30 DPP + 10 D, 75 days post planting) was 1.00, the Fertility score ([5]; 30 DPP + 10 D, 80 days post planting) was 1.25 and the Fertility score ([5]; 30 DPP + 10 D, 85 days post planting) was 1.25. For the same molecule, the Fertility score ([5]; 30 DPP + 10 D, 90 days post planting) was 1.25, the Fertility score ([5]; 30 DPP + 10 D, 104 days post planting) was 1.25 and the Fertility score ([5]; 30 DPP + 20 D (sprays from 30 DPP every 20 days), 2% Roundup about 64 oz/acre, 58 days post planting) was 1.00. It also gave a Fertility score ([5]; 30 DPP + 20 D, 62 days post planting) of 1.75, a Fertility score ([5]; 30 DPP + 20 D, 66 days post planting) of 2.5 and a Fertility score ([5]; 30 DPP + 20 D, 70 days post planting) of 2.75. It also gave a Fertility score ([5]; 30 DPP + 20 D, 75 days post planting) of 2.5, a Fertility score ([5]; 30 DPP + 20 D, 80 days post planting) of 1.75 and a Fertility score ([5]; 30 DPP + 20 D, 85 days post planting) of 1.75. It also gave a Fertility score ([5]; 30 DPP + 20 D, 90 days post planting) of 1.50, a Fertility score ([5]; 30 DPP + 20 D, 104 days post planting) of 1.50 and a Fertility score ([5]; 30 DPP single spray, 62 days post planting) of 3.00. It also gave a Fertility score ([5]; 30 DPP single spray, 66 days post planting) of 3.75, a Fertility score ([5]; 30 DPP single spray, 70 days post planting) of 4.00 and a Fertility score ([5]; 30 DPP single spray, 75 days post planting) of 4.25. The Fertility score ([5]; 30 DPP single spray, 80 days post planting) was 4.50, the Fertility score ([5]; 30 DPP single spray, 85 days post planting) was 5.00 and the Fertility score ([5]; 30 DPP single spray, 90 days post planting) was 5.00. For the same molecule, the Fertility score ([5]; 30 DPP single spray, 104 days post planting) was 5.00, the “Adverse effects of the multiple sprays (other than male sterility)” value ([5]; throughout the season, about 64 oz/acre) was “No adverse effects” and the “Induction of male sterility” value ([5]; treatment 2 (30 DPP+10 D), about 64 oz/acre) was “adequate to induce sterility”. The “Induction of male sterility” value ([5]; treatment 3 (30 DPP+20 D), about 64 oz/acre) was “adequate to induce sterility” and the “Boll set of hand pollinated flowers (female sterility)” value [6] was “practically all hand pollinated flowers had not set viable bolls”.
